One series concerns Pyrenophora teres. Briefly: In vitro-Test with Pyrenophora teres. The series is classed as cell-based.
Another series has as its system Alternaria alternata. As to the kind of experiment: In vitro-Test with Alternaria alternata. The series is classed as cell-based.
The subject of a further series is Botrytis cinerea. Briefly: In vitro-Test with Botrytis cinerea. It counts as cell-based.
Series [1] relates to fish (Danio rerio) embryos. As to the kind of experiment: In vivo ecotoxicity screening test on fish (Danio rerio). To be noted: active compound alone; fish embryos, 96 h, 28.5° C. The procedure: (§1) with ECxi the Effect Concentration (EC) of each chemical i (in ppm) causing x % effect on the ecotoxicity test endpoint.
(§2) For each compound combination, the predicted ECx value is calculated. It is then compared to an experimentally measured value. The ratio of predicted versus measured effect for the combination (thereafter called the Model Deviation Ratio or MDR) is then calculated.
(§3) The environmental effect of the compound combinations was measured experimentally in laboratory ecotoxicity screening studies with fish (Danio rerio). […] Mortality was recorded after 96 h for each tested concentration and a reference control. […] Then, the MDR values were calculated.
(§4) • Solvent: 0.5% by weight dimethyl sulfoxide
(§5) This concentrate is then diluted with water to the desired a.i. concentration, leading to a maximal solvent concentration of 0.5% by weight. The compounds alone and the combinations were tested for five increasing concentrations between 0.01 and 1000 ppm a.i., (e.g. 0.1, 1.0, 10 and 100 ppm a.i). For the combinations, compounds A and B were mixed in a weight ratio of 5:1 to 1:5 and five increasing concentrations were tested for each ratio.

Another series concerns Puccinia triticina. As to the kind of experiment: In vivo preventive Puccinia triticina test (wheat). The settings on record: 8 days after inoculation; for pest or weed control at 20 ppm: 20 ppm a.i.; for pest or weed control at 40 ppm: 40 ppm a.i.; for pest or weed control at 80 ppm: 80 ppm a.i. The procedure: After the spray coating has been dried, the plants are sprayed with a spore suspension of Puccinia triticina.
(§6) The test is evaluated 8 days after the inoculation.

For another series, the system named is Sphaerotheca fuliginea. As to the kind of experiment: In vivo preventive test on Sphaerotheca (cucumbers). To be noted: Table D1, 7 days after inoculation.
The test system of the next series is Venturia inaequalis. Briefly: In vivo preventive test on Venturia (apples). The settings on record: 10 days after inoculation. The procedure:
The test is evaluated 10 days after the inoculation.

The test system of series [2] is Septoria tritici. Briefly: In vivo preventive Septoria tritici test (wheat). To be noted: 21 days after inoculation; for pest or weed control at 40 ppm: 40 ppm a.i. The procedure:
After the spray coating has been dried, the plants are sprayed with a spore suspension of Septoria tritici.
The test is evaluated 21 days after the inoculation.

The subject of the next series is Ustilago avenae. As to the kind of experiment: In vitro-Test with Ustilago avenae. It counts as cell-based. The settings on record: compound alone.
The next series has as its system Fusarium culmorum. Briefly: In vitro-Test with Fusarium culmorum. It counts as cell-based.
A further series has as its system Leptosphaeria nodorum. As to the kind of experiment: In vivo preventive Leptosphaeria nodorum test (wheat). The settings on record: Table G1, 8 days after inoculation. The method, then: After the spray coating has been dried, the plants are sprayed with a spore suspension of Leptosphaeria nodorum.
as §6

The test system of another series is Rhizoctonia solani. As to the kind of experiment: In vitro-Test with Rhizoctonia solani. It counts as cell-based.
The subject of a further series is Phakopsora pachyrhizi. As to the kind of experiment: In vivo preventive test on Phakopsora (soybeans). The settings on record: Table C3, 7 days after inoculation.
The nature of series [3]: In vivo ecotoxicity screening test on fish (Danio rerio). To be noted: Danio rerio, in vivo, other: exposure of embryos to the aqueous preparation. The method, then: as §1, §2, §3, §4, §5
The test system of series [4] is Blumeria graminis f.sp. hordei. As to the kind of experiment: In vivo preventive Blumeria test (barley). To be noted: Table F2, 7 days after inoculation.
For series [5], the system named is Septoria tritici. Briefly: In vitro-Test with Septoria tritici. It counts as cell-based. To be noted: compound alone.
Setting [6] is: Zymoseptoria tritici, 504 h, read-out: Efficacy in % found.
[7] abbreviates: Puccinia triticina, 192 h, read-out: Efficacy in % found.
The mark [8] stands for this setting: Puccinia triticina, 192 h, Table H1, read-out: Efficacy in % found.

Values joined by “and” are separate entries in the source; they are usually repeats but may differ in a detail not shown here. Equal entries are not always repeated. Where two headings read alike, the source gives them in different places.

The term LC50 denotes the concentration lethal to half of the exposed cells or organisms.

`Cn1cc(C(=O)Nc2ccc(F)cc2-c2ccc(Cl)c(Cl)c2)c(C(F)F)n1` [Example 2.002, bixafen]: the Efficacy % in the series on Pyrenophora teres (0.2 ppm) was 46%; with Pyrenophora teres (1 ppm), 60%; in the series with Pyrenophora teres (5 ppm), 72%; with Alternaria alternata (0.04 ppm), 55%; in the series with Alternaria alternata (0.2 ppm), 84% and 57%; in the series on Alternaria alternata (1 ppm) it was 88%. Further, the figures for the Efficacy % with Botrytis cinerea (1 ppm) and in the series with Botrytis cinerea (5 ppm) were 63% and 91%, respectively. The “Ecotoxicity LC50-96 h found” value in series [1] worked out at 0.154 ppm a.i. For the same compound, the “Efficacy in % found” value is listed as 22% in the series with Puccinia triticina (Table H1, 25 ppm a.i.); 33% in the series on Puccinia triticina (Table H1, 50 ppm a.i.); 67% in the series with Puccinia triticina (Table H1, 100 ppm a.i.).

In the case of `OC(Cc1ccccc1Cl)(Cn1nc[nH]c1=S)C1(Cl)CC1` (stereo not shown) [Example 1.018, prothioconazole], the “Efficacy in % found” value with Sphaerotheca fuliginea (2.5 ppm a.i.) was 71%; in the series on Sphaerotheca fuliginea (5 ppm a.i.), 96%; in the series on Sphaerotheca fuliginea (10 ppm a.i.), 100%; with Venturia inaequalis (Table E1, 2.5 ppm a.i.) it was 0%; in the series with Venturia inaequalis (Table E1, 5 ppm a.i.), 30%; with Venturia inaequalis (Table E1, 10 ppm a.i.), 61%. Also, the “Efficacy in % found” value in the series with Septoria tritici [2] (25 ppm a.i.) was determined as 0%; in the series with Septoria tritici [2] (50 ppm a.i.) it was 14%; in the series on Septoria tritici [2] (100 ppm a.i.), 43%; in the series with Puccinia triticina (25 ppm a.i.) it was 0%; with Puccinia triticina (50 ppm a.i.), 0%; with Puccinia triticina (100 ppm a.i.), 0%. In addition, the “Efficacy in % found” value in the series on Puccinia triticina (Table H1, 25 ppm a.i.) came out at 0%; in the series on Puccinia triticina (Table H1, 50 ppm a.i.), 0%; with Puccinia triticina (Table H1, 100 ppm a.i.), 0%. Further, the Efficacy % is listed as 22% with Pyrenophora teres (0.2 ppm); 0% in the series with Alternaria alternata (0.04 ppm); 91% in the series with Alternaria alternata (0.2 ppm); 85% in the series with Ustilago avenae (1 ppm); 100% in the series with Ustilago avenae (5 ppm); 99% with Fusarium culmorum (0.2 ppm). Moreover, the “Ecotoxicity LC50-96 h found” value in series [1] was determined as 3.16 ppm a.i.

Turning to mancozeb [Example 5.013], the “Efficacy in % found” value in the series with Venturia inaequalis (Table E2, 12.5 ppm a.i.) turned out to be 0%; in the series with Venturia inaequalis (Table E2, 25 ppm a.i.) it was 18%; in the series on Venturia inaequalis (Table E2, 50 ppm a.i.) it was 95%; with Leptosphaeria nodorum (250 ppm a.i.) it was 14%; in the series with Leptosphaeria nodorum (500 ppm a.i.) it was 14%; in the series with Leptosphaeria nodorum (1000 ppm a.i.), 14%. Besides, the “Efficacy in % found” value is recorded as 23% in the series on Phakopsora pachyrhizi (12.5 ppm a.i.); 45% in the series on Phakopsora pachyrhizi (25 ppm a.i.); 90% in the series with Phakopsora pachyrhizi (50 ppm a.i.); 29% with Septoria tritici [2] (250 ppm a.i.); 29% with Septoria tritici [2] (500 ppm a.i.); 29% in the series on Septoria tritici [2] (1000 ppm a.i.). In addition, the Efficacy % with Pyrenophora teres (20 ppm) worked out at 81%; in the series with Pyrenophora teres (100 ppm) it was 83%; in the series on Rhizoctonia solani (4 ppm, compound alone), 57%; in the series on Rhizoctonia solani (20 ppm, compound alone) it was 99%.

Take `CC(C)C1CCC(Cc2ccc(Cl)cc2)C1(O)Cn1cncn1` (stereo not shown) [Example 1.012, ipconazole]: the “Efficacy in % found” value in the series on Sphaerotheca fuliginea (2.5 ppm a.i.) is reported as 26%; with Sphaerotheca fuliginea (5 ppm a.i.), 87%; with Sphaerotheca fuliginea (10 ppm a.i.) it was 100%. Besides, the Efficacy % with Rhizoctonia solani (0.04 ppm) was found to be 35%; with Rhizoctonia solani (0.2 ppm), 96%; with Fusarium culmorum (0.04 ppm) it was 7%; in the series with Fusarium culmorum (0.2 ppm), 13%; in the series on Fusarium culmorum (1 ppm) it was 96%; in the series with Fusarium culmorum (5 ppm), 99%. Besides, the pest or weed control at 20 ppm in the series with Septoria tritici [2] (Zymoseptoria tritici, 504 h, 20 ppm a.i., read-out: Efficacy in % found) is 0%; with Puccinia triticina (setting [7]), 0%; with Puccinia triticina (setting [8]) it was 0%. Also, the pest or weed control at 40 ppm in the series on Septoria tritici [2] (setting [6]) was 0%; in the series with Puccinia triticina (setting [7]), 44%; in the series with Puccinia triticina (setting [8]) it was 67%. For the same compound, the pest or weed control at 80 ppm in the series with Septoria tritici [2] (Zymoseptoria tritici, 504 h, 80 ppm a.i., read-out: Efficacy in % found) is 0%; in the series on Puccinia triticina (setting [7]), 100%; with Puccinia triticina (setting [8]), 89%. In series [1], the “Ecotoxicity LC50-96 h found” value is on record as 6.57 ppm a.i.

As to `CC(O)(Cn1cncn1)c1ccc(Oc2ccc(Br)cc2)nc1C(F)(F)F` (stereo not shown) [I.59, 2-[6-(4-bromophenoxy)-2-(trifluoromethyl)pyridin-3-yl]-1-(1H-1,2,4-triazol-1-yl)propan-2-ol], the LC50 at 96 h in series [3] came out at 6 µg/mL.

As to `CC(O)(Cn1cncn1)c1ccc(Oc2ccc(Cl)cc2)nc1C(F)(F)F` (stereo not shown) [I.01, 2-[6-(4-chlorophenoxy)-2-(trifluoromethyl)pyridin-3-yl]-1-(1H-1,2,4-triazol-1-yl)propan-2-ol], in the series on Septoria tritici [2] (setting [6]), the pest or weed control at 40 ppm was 63%. In addition, the LC50 at 96 h in [3] was determined as 6.21 µg/mL. Moreover, in the series on Puccinia triticina (setting [7]), the pest or weed control at 20 ppm was 30%, the pest or weed control at 40 ppm came to 50% and the pest or weed control at 80 ppm came out at 60%.

Regarding `CCCN(CC)CC1COC2(CCC(C(C)(C)C)CC2)O1` (stereo not shown) [Example 1.020, spiroxamine], the “Efficacy in % found” value is 31% in the series with Sphaerotheca fuliginea (25 ppm a.i.); 37% in the series with Sphaerotheca fuliginea (50 ppm a.i.); 49% with Sphaerotheca fuliginea (100 ppm a.i.); 0% with Venturia inaequalis (Table E1, 25 ppm a.i.); 0% in the series on Venturia inaequalis (Table E1, 50 ppm a.i.); 14% in the series with Venturia inaequalis (Table E1, 100 ppm a.i.). Moreover, the “Efficacy in % found” value in [4] (62.5 ppm a.i.) is 33%; in series [4] (125 ppm a.i.), 89%; in series [4] (250 ppm a.i.), 100%. Further, the Efficacy % worked out at 7% with Botrytis cinerea (4 ppm); 9% in the series on Botrytis cinerea (20 ppm); 25% in the series on Septoria tritici [5] (0.8 ppm); 34% in the series with Septoria tritici [5] (4 ppm); 12% in the series on Ustilago avenae (20 ppm); 100% in the series with Ustilago avenae (100 ppm). Besides, the pest or weed control at 62.5 ppm in the series with Septoria tritici [2] (Zymoseptoria tritici, 504 h, 62.5 ppm a.i., read-out: Efficacy in % found) turned out to be 0%; with Puccinia triticina (Puccinia triticina, 192 h, 62.5 ppm a.i., read-out: Efficacy in % found), 11%. The pest or weed control at 125 ppm in the series with Septoria tritici [2] (Zymoseptoria tritici, 504 h, 125 ppm a.i., read-out: Efficacy in % found) amounted to 14%; in the series with Puccinia triticina (Puccinia triticina, 192 h, 125 ppm a.i., read-out: Efficacy in % found), 33%. In addition, the pest or weed control at 250 ppm in the series with Septoria tritici [2] (Zymoseptoria tritici, 504 h, 250 ppm a.i., read-out: Efficacy in % found) was determined as 57%; with Puccinia triticina (Puccinia triticina, 192 h, 250 ppm a.i., read-out: Efficacy in % found) it was 33%. Further, the “Ecotoxicity LC50-96 h found” value in [1] came out at 14.81 ppm a.i.
